Data: patent EP0545103A1, “Insecticidal, acaricidal and molluscicidal 1-(substituted) thioalkylpyrroles” (priority 1991, dated 1993)

Experiments:
Type in all cases: in vivo
Design in all cases: key: 0: no effect; 10-25% kill; 26-35% kill; 36-45% kill; 46-55% kill; 56-65% kill; 66-75% kill; 76-85% kill; 86-99% kill; 9: 100% kill
[1] = tested on: Diabrotic undecimpunctata howardi, 3rd instar southern corn rootworm; assay: Southern corn rootworm soil test; conditions: mortality rating after 6 days
Description: Diabrotic undecimpunctata howardi, 3rd instar southern corn rootworm
One cc of fine talc is placed in a 30 mL wide-mouth screw-top glass jar. One mL of the appropriate acetone test solution is pipetted onto the talc so as to provide 1.25 and 0.25 mg of active ingredient per jar. The jars are set under a gentle air flow until the acetone is evaporated. The dried talc is loosened, 1 cc of millet seed is added to serve as food for the insects and 25 mL of moist soil is added to each jar. The jar is capped and the contents thoroughly mixed on a Vortex Mixer. Following this, ten 3rd instar rootworms are added to each jar and the jars are loosely capped to allow air exchange for the larvae. The treatments are held for 6 days when mortality counts are made. Missing larvae are presumed dead, since they decompose rapidly and can not be found. The concentrations used in this test correspond approximately to 50 and 10 kg/ha, respectively.
(§1) All of the above tests are rated according to the rating scale shown below.

[2] = tested on: Spodoptera eridania, 3rd instar larvae, southern armyworm; assay: Southern armyworm 3rd instar test, dipped limabean leaf; conditions: for ARMYWORM Day 3: rating at 3 days; for ARMYWORM Day 5: rating at 5 days
Description: (§2) Test solutions are prepared by dissolving the test compound in a 35% acetone in water mixture to give a concentration of 10,000 ppm. Subsequent dilutions are made with water as needed.
Spodoptera eridania, 3rd instar larvae, southern armyworm
A Sieva limabean leaf expanded to 7-8 cm in length is dipped in the test solution with agitation for 3 seconds and allowed to dry in a hood. The leaf is then placed in a 100 x 10 mm petri dish containing a damp filterpaper on the bottom and ten 3rd instar caterpillars. At 3 and 5 days, observations are made of mortality, reduced feeding, or any interference with normal molting.
as §1

[3] = tested on: Heliothis virescens, egg, tobacco budworm; assay: Tobacco budworm egg test, dipped cotton leaf and eggs; conditions: mortality rating after 3 days
Description: as §2
Heliothis virescens, egg, tobacco budworm
A young cotton leaf about 6-7cm in length is dipped in an agitated test suspension for about 3 seconds. Eggs are collected on a cheesecloth and the cloth is cut into 10-20mm squares, each containing approximately 50-100 eggs which are 6-30 hours old. The egg-containing cheesecloth square is similarly dipped in a test suspension and placed on a treated cotton leaf. The combination is dried in a hood and then placed in an 8 ounce Dixie® cup #2168-ST (240ml volume, 6cm tall, 9.5cm top diameter, 8.0cm bottom diameter) into which a 5cm length of damp dental wick has been placed. The cup is covered with a clear plastic lid and held for 3 days, after which mortality counts are made.
as §1

[4] = tested on: Heliothis virescens, 3rd instar tobacco budworm; assay: Tobacco budworm 3rd instar test, dipped cotton cotyledons; conditions: mortality rating after 3 days
Description: as §2
Heliothis virescens, 3rd instar tobacco budworm
Cotton cotyledons are dipped in the test solution and allowed to dry in a hood. When dry, each is cut into quarters and ten sections are placed individually in 30 mL plastic medicine cups containing a 5-7mm long piece of damp dental wick. One 3rd instar caterpillar is added to each cup and the cup is sealed with MYLAR® film. Treatments are maintained for 3 days before a mortality count and observation of reduction in feeding damage are made.
as §1

[5] = tested on: Spodoptera eridania, 3rd instar larvae, southern armyworm; assay: Southern armyworm 7-day residual test; conditions: R designates Residual: 7-day residual foliage, concentration not given; for ARMYWORM Day 3 R: rating at 3 days; for ARMYWORM Day 5 R: rating at 5 days
Description: as §2
Spodoptera eridania, 3rd instar larvae, southern armyworm, 7-day residual
The limabean leaves treated in the above test are maintained under high intensity lamps in the greenhouse for 7 days. These lamps duplicate the effects of a bright sunny day in June in New Jersey and are kept on for 14 hour day length. After 7 days, the foliage is sampled and assayed as in the above-said test.
as §1

[6] = tested on: Spodoptera eridania, 3rd instar larvae, southern armyworm; assay: Southern armyworm systemic uptake (stem systemic) test; conditions: cut stem in emulsion 3 days
Text: Spodoptera eridania, systemic uptake, 3rd instar larvae, southern armyworm
Subsequent 10-fold dilutions are made with water as needed. Sieva limabean plants, with the primary leaves expanded to a length of 7-8 cm, are cut off at least 3 cm above the soil level to avoid contamination with soil bacteria which will cause decay of the stem during the test. The cut stem is placed in the test emulsion and wrapped with a bit of cotton to hold the stem off the bottom of the bottle and to limit evaporation. The treated stem is thus maintained for 3 days at 27° C to allow the test compound to be taken up into the plant. Following this, one leaf is removed from the plant and placed in a 100 x 10 mm petri dish with 10 southern armyworms as described above. Mortality counts and observations of feeding damage are made 3 and 5 days later.
as §1

SMILES	SOUTHERN CORN ROOTWORM ([1]; 1 (ppm as headed))	SOUTHERN CORN ROOTWORM ([1]; 10 (ppm as headed))	SOUTHERN CORN ROOTWORM ([1]; 50 (ppm as headed))	ARMYWORM Day 3 ([2]; 10 ppm)	ARMYWORM Day 5 ([2]; 10 ppm)	ARMYWORM Day 3 ([2]; 100 ppm)	ARMYWORM Day 5 ([2]; 100 ppm)	ARMYWORM Day 3 ([2]; 1000 ppm)	ARMYWORM Day 5 ([2]; 1000 ppm)	TOBACCO BUDWORM Egg ([3]; 1000 ppm)	TOBACCO BUDWORM 3rd Instar ([4]; 10 ppm)	TOBACCO BUDWORM 3rd Instar ([4]; 100 ppm)	TOBACCO BUDWORM 3rd Instar ([4]; 1000 ppm)	ARMYWORM Day 3 R [5]	ARMYWORM Day 5 R [5]	ARMYWORM Stem Sys [6]	TOBACCO BUDWORM Egg ([3]; 100 ppm)	TOBACCO BUDWORM Egg ([3]; 300 ppm)
CC(C)OP(=S)(OC(C)C)SCn1c(-c2ccc(Cl)cc2)c(C#N)c(Br)c1C(F)(F)F [Example 27]	6 (66-75% kill)	7 (76-85% kill)	9 (100% kill)	0	0	9 (100% kill)	9 (100% kill)	9 (100% kill)	9 (100% kill)	0	0	7 (76-85% kill)	9 (100% kill)	9 (100% kill)	9 (100% kill)	0		
N#Cc1c(Br)c(C(F)(F)F)n(CSc2nc3ccccc3o2)c1-c1ccc(Cl)cc1 [Example 6]	0			0		9 (100% kill)		9 (100% kill)		0	0			9 (100% kill)	9 (100% kill)	0		
CN(C)C(=S)SCn1c(Cl)c(Cl)c(C#N)c1-c1ccc(Cl)c(Cl)c1 [Example 32]			0	0	0					0		0	0	0	0	0		
CN(C)C(=S)SCn1c(Br)c(Br)c(C#N)c1Br [Example 31]			0	0	0	9 (100% kill)	9 (100% kill)	9 (100% kill)	9 (100% kill)	0			6 (66-75% kill)	9 (100% kill)	9 (100% kill)	0		
N#Cc1c(Br)c(C(F)(F)F)n(CS(=O)(=O)c2ccccc2)c1-c1ccc(Cl)cc1 [Example 46]	0	0	8 (86-99% kill)	0	0	0	0	9 (100% kill)	9 (100% kill)	0				4 (46-55% kill)	9 (100% kill)	0		
N#Cc1c(Br)c(Br)n(CSCc2ccccc2)c1Br [Example 40]			0	0	0	0	0	9 (100% kill)	9 (100% kill)	0		0	0	0		0		
CSCn1c(Br)c(Br)c(C#N)c1SC [Example 43]			0	0	0	0	0	9 (100% kill)	9 (100% kill)	0			0			0		
N#Cc1c(Br)c(C(F)(F)F)n(CSc2nc3ccccc3[nH]2)c1-c1ccc(Cl)cc1 [Example 9]			0			0	0	6 (66-75% kill)	7 (76-85% kill)	0		0	0	9 (100% kill)	9 (100% kill)	0		
CCN(CC)C(=S)SCn1c(-c2ccc(Cl)cc2)c(C#N)c(Br)c1C(F)(F)F [Example 26]	0			9 (100% kill)	9 (100% kill)	9 (100% kill)	9 (100% kill)	9 (100% kill)	9 (100% kill)	0	9 (100% kill)	9 (100% kill)	9 (100% kill)	9 (100% kill)	9 (100% kill)	0		
N#Cc1c(Br)c(Br)n(CSC(=N)N)c1Br [Example 20]			0	0	0	9 (100% kill)	9 (100% kill)	9 (100% kill)	9 (100% kill)	0	0	0	9 (100% kill)	6 (66-75% kill)			0	0
